Results taken from ChEMBL document CHEMBL1155567, “Three new toxic norditerpenoid alkaloids from the low larkspur Delphinium nuttallianum” (J Nat Prod, 2000).

Test: Toxicity in iv dosed 24 hrs fasted Swiss-Webster mouse
Format: organism-based
Conditions: in vivo

`CCN1C[C@]2(COC(=O)c3ccccc3N3C(=O)C[C@H](C)C3=O)CC[C@H](OC)[C@]34C5C[C@@H]6[C@@H](OC(C)=O)C[C@@](O)(C5[C@H]6O)[C@@](O)([C@H]13)[C@@H](OC)C24` (stereo partly drawn) and `CCN1C[C@]2(COC(=O)c3ccccc3N3C(=O)C[C@H](C)C3=O)CC[C@H](OC)[C@]34C5C[C@@H]6[C@@H](OC(C)=O)C[C@@](O)(C5[C@H]6OC)[C@@](O)([C@H]13)[C@@H](OC)C24` (stereo partly drawn) [GEYERLINE] are within 1.5-fold of each other in LD50: 5.7 mg/kg for the first, 6.2 mg/kg for the second.

`CCN1C[C@]2(COC(=O)c3ccccc3N3C(=O)C[C@H](C)C3=O)CC[C@H](OC)[C@]34C5C[C@@H]6[C@@H](OC(C)=O)C[C@@](O)(C5[C@H]6OC(C)=O)[C@@](O)([C@H]13)[C@@H](OC)C24` (stereo partly drawn) gave an LD50 of 3.3 mg/kg.
